# Laboratory results taken from publication PMC7921374, “In vitro antifungal activity of pelgipeptins against human pathogenic fungi and Candida albicans biofilms” (AIMS Microbiology, 2021).
# Where a SMILES comes first, the peptide text is derived from it. Bridges are numbered along the chain shown (N, C = ends). [ ]: non-standard residue; d: D form. The star is where a group is joined. X1 = CC[C@H](C)CCCCC(=O)*; Dab = NCC[C@H](N)C(=O)O
# Key:
# Assay type in all cases: cell-based
# [1] = system: Candida albicans SC 5314 biofilms; test: Inhibition of mature biofilms (XTT); conditions: biofilm grown 24 h, planktonic cells removed, antimicrobial for another 24 h at 37 °C, triplicate, at least twice
# Experimental: (§1) The effects of the pelgipeptins on C. albicans biofilms were analyzed according to the protocol described by Pierce et al.. Briefly, 2 × 10^6 cells/mL of C. albicans SC 5314 were inoculated on 96-well polystyrene microplates. The inhibition of biofilm formation was also evaluated by adding antimicrobials (lipopeptides, fluconazole, or amphotericin B) at the same time as the yeast inoculum. Furthermore, the inhibition of early-phase biofilms was assessed after 4 hours of yeast growth by removing the planktonic cells and adding the antimicrobials (lipopeptides or amphotericin B). For the investigation of the effects of peptides on mature biofilms, the Candida cells were allowed to grow for 24 h when planktonic cells were removed, and the antimicrobials were added to the culture and incubated for another 24 h at 37 °C.
# (§2) The biofilm viability was analyzed by the metabolic assay on the basis of the reduction of 2,3-bis-(2-methoxy-4-nitro-5-sulfophenyl)-2H-tetrazolium-5-carboxanilide (XTT) and absorbance reading at 490 nm. […] The sessile minimal inhibitory concentrations (SMICs) were also determined at 80% (SMIC80) and 50% (SIMIC50) decrease in absorbance at 490 nm in comparison with the control biofilms growing in the absence of the drug, as previously described.
# [2] = system: Candida albicans SC 5314 biofilms; test: Inhibition of early-phase biofilm (XTT); conditions: antimicrobial added after 4 hours of yeast growth, planktonic cells removed, A490, 80% decrease, triplicate, at least twice
# Experimental: as §1, §2
# [3] = system: Candida albicans SC 5314 biofilms; test: Inhibition of initial biofilm formation (XTT); conditions: antimicrobial added at same time as yeast inoculum (2 × 10^6 cells/mL), XTT reduction, A490, 80% decrease vs control biofilm, triplicate, at least twice
# Experimental: as §1, §2
# [4] = system: Candida glabrata ATCC 90030; test: microbe, parasite or virus in culture; conditions: broth microdilution CLSI M27-A4 modified, RPMI 1640 pH 7.0, 2 × 10^3 cells/mL, 37 °C, complete inhibition of visible growth, triplicates, at least thrice
# Experimental: (§3) The isolated pelgipeptin isoforms were tested against the reference clinical strains of Candida albicans SC 5314 (ATCC MYA-2876), Candida glabrata ATCC 90030, Cryptococcus neoformans H99 (ATCC 208821), and Paracoccidioides brasiliensis PB18, a Brazilian clinical isolate. All the isolates were obtained from the mycology collection of the University of Brasilia (Department of Cell Biology). Before each experiment, both Candida spp. strains were grown in Sabouraud's dextrose broth (Himedia) overnight at 30 °C/200 rpm. In addition, the C. neoformans cells were grown in the same conditions for 24 h. P. brasiliensis strains were also grown in GPY medium (2% glucose w/v, 1% peptone w/v, 0.5% yeast extract w/v, and 2% agar w/v), at 37 °C, for 5 days. The fungal cells were collected by centrifugation, washed thrice in phosphate buffered saline (PBS) (NaCl, 137 mM; KCl, 2.7 mM; Na2HPO4, 10 mM; KH2PO4, 2 mM), and inoculated in RPMI 1640 medium (Thermo-Fisher Scientific) supplemented with L-glutamine and buffered to pH 7.0 with 165 mM of 3-(N-morpholino) propanesulfonic acid.
# (§4) The in vitro antifungal assays were performed according to the broth microdilution susceptibility test from the Clinical and Laboratory Standards Institute M27-A4 guidelines with modifications. Briefly, the twofold serial dilutions of each pelgipeptin were prepared in 96-well polystyrene microplates to a final volume of 50 µL. Fluconazole, an antifungal employed in the treatment of mycosis caused by Candida spp, Cryptococcus spp, and Paracoccidioides spp, was used as a control (Sigma-Aldrich). We also utilized polymyxin B (Sigma-Aldrich), another bacterial lipopeptide, in our assays due to some works that show its antifungal activity,[28]. The final concentrations of each lipopeptide and control ranged from 1 to 128 µg/mL, and the negative controls without peptide were used to assess fungal growth. Subsequently, 50 µL of the inoculum adjusted on RPMI-1640 medium was added to each well to a final concentration of 2 × 10^3 cells/mL for Candida spp. and 10^4 cells/mL for C. neoformans or P. brasiliensis strains. The microplates were incubated at 37 °C for 24, 48, or 72 h. In addition, the strains of C. neoformans were incubated with shaking at 200 rpm.
# (§5) The MICs of the pelgipeptins against P. brasiliensis were determined using the microplate AlamarBlue Cell Viability Assay. This assay uses a resazurin-based solution to indicate cell viability, which was evaluated by fluorometric readings in a fluorescence plate reader with excitation at 550 nm and emission at 585 nm (SpectraMax® M plate reader). The experiments were performed in triplicates at least thrice on separate dates.
# Candida albicans SC5314 = test: microbe, parasite or virus in culture; conditions: broth microdilution CLSI M27-A4 modified, RPMI 1640 pH 7.0, 2 × 10^3 cells/mL, 37 °C, complete inhibition of visible growth, triplicates, at least thrice
# Experimental: as §3, §4, §5
# [5] = system: Paracoccidioides brasiliensis Pb18; test: microbe, parasite or virus in culture
# Experimental: as §3, §4, §5
# [6] = system: Cryptococcus neoformans H99; test: microbe, parasite or virus in culture; conditions: broth microdilution CLSI M27-A4 modified, RPMI 1640 pH 7.0, 10^4 cells/mL, 37 °C, shaking 200 rpm, lowest concentration completely inhibiting visible growth, triplicates, at least thrice
# Experimental: as §3, §4, §5
compound,measurement,setting,value
C[C@@H]1[C@H](O)[C@@H](C)/C=C/C=C/C=C/C=C/C=C/C=C/C=C/[C@H](O[C@@H]2O[C@H](C)[C@@H](O)[C@H](N)[C@@H]2O)C[C@@H]2O[C@](O)(C[C@@H](O)C[C@@H](O)[C@H](O)CC[C@@H](O)C[C@@H](O)CC(=O)O[C@H]1C)C[C@H](O)[C@H]2C(=O)O [Amphotericin B],Inhibition of mature biofilms SMIC50,"[1]; A490, 50% decrease",0.5 µg/mL
same,Inhibition of mature biofilms SMIC80,"[1]; A490, 80% decrease",4 µg/mL
same,Inhibition of early-phase biofilm SMIC80,[2],<0.5 µg/mL
same,Inhibition of early-phase biofilm SMIC80,[2]; listed as amphotericin B,lower than 0.5 µg/mL
same,Inhibition of initial biofilm formation SMIC80,[3],<0.5 µg/mL
same,Inhibition of initial biofilm formation SMIC80,[3]; listed as amphotericin B,lower than 0.5 µg/mL
"CC[C@H](C)CCCCC(=O)N[C@@H](CCN)C(=O)N[C@H](C(=O)N[C@@H](CCN)C(=O)N[C@H]1CCNC(=O)[C@H]([C@@H](C)O)NC(=O)[C@H](CCN)NC(=O)[C@H](CCN)NC(=O)[C@H](CC(C)C)NC(=O)[C@@H](Cc2ccccc2)NC(=O)[C@H](CCN)NC1=O)[C@@H](C)O [Polymyxin B, polymyxin B] (X1-[Dab]T[Dab][Dab][Dab][dF]L[Dab][Dab]T; lactam 4-C (inferred); N-terminus assumed)",MIC Candida glabrata 90030,[4],512 µg/mL
same,MIC Candida albicans SC5314,Candida albicans SC5314,256 µg/mL
same,MIC Paracoccidioides brasiliensis Pb18,"[5]; broth microdilution, RPMI 1640 pH 7.0 (MOPS), 10^4 cells/mL, 37 °C, AlamarBlue fluorescence (ex 550/em 585 nm), triplicates, at least thrice",> 1024 µg/mL
same,MIC Cryptococcus neoformans H99,[6],8 µg/mL
OC(Cn1cncn1)(Cn1cncn1)c1ccc(F)cc1F [Fluconazole],MIC,"[4]; Nakaseomyces glabratus, ATCC90030",32 µg/mL
same,MIC,"Candida albicans SC5314; Candida albicans, SC5314",16 µg/mL
same,MIC,"[5]; Paracoccidioides brasiliensis, PB18, pH 7, read-out: MIC Paracoccidioides brasiliensis Pb18",2 µg/mL
same,MIC,"[6]; Cryptococcus neoformans, H99",2 µg/mL
